Test results published in ChEMBL document CHEMBL3045386, “Flavonoids as lead compounds modulating the enzyme targets in Alzheimers disease” (Med Chem Res, 2013).
pIC50, pKi: −log10 of the molar value. Each block holds one compound with its values, some of them ahead of it.

Key:
Cholinesterase = Cholinesterase (Homo sapiens, UniProt P06276); assay: Inhibition of BuChE (unknown origin)
Acetylcholinesterase = Acetylcholinesterase (Homo sapiens, UniProt P22303); assay: Inhibition of AChE (unknown origin)
Sequence of Acetylcholinesterase (P22303 whole entry): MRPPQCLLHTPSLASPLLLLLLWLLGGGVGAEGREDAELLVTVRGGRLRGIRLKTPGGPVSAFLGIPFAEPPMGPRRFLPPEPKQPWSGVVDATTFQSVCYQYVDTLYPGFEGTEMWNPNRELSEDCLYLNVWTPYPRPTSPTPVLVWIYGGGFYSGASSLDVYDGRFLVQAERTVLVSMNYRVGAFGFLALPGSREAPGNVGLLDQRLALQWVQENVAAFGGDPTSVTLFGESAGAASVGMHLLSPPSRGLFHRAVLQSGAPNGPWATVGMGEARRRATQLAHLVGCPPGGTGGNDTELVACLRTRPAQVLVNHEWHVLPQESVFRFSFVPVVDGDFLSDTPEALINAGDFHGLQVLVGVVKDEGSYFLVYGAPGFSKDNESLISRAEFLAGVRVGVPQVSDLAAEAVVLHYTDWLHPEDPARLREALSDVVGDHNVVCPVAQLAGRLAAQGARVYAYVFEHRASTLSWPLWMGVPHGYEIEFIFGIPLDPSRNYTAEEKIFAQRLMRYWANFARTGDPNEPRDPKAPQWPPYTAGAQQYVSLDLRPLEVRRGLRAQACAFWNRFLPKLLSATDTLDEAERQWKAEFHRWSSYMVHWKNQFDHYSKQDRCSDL

[1] = Inhibition of NADPH oxidase in Homo sapiens (human) HUVEC cells; assay type: cell-based
[2] = target: Glycogen synthase kinase-3 beta (Homo sapiens, UniProt P49841); assay: Inhibition of Homo sapiens (human) recombinant GSK3beta after 30 min by Kinase-Glo assay
Sequence of Glycogen synthase kinase-3 beta (P49841 whole entry): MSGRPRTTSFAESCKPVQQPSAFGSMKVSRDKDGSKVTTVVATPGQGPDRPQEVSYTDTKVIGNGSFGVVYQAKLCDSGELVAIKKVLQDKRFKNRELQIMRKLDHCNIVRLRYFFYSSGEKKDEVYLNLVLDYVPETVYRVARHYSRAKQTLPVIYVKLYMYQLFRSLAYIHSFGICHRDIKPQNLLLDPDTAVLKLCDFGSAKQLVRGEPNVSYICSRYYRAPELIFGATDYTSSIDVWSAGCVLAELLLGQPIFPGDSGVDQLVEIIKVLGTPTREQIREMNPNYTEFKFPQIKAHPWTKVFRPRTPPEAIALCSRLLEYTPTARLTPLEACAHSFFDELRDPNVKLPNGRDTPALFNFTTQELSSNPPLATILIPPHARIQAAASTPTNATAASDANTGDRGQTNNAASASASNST

Beta-secretase 1 = Beta-secretase 1 (Homo sapiens, UniProt P56817); assay: Inhibition of BACE1 (unknown origin)
Sequence of Beta-secretase 1 (P56817 whole entry): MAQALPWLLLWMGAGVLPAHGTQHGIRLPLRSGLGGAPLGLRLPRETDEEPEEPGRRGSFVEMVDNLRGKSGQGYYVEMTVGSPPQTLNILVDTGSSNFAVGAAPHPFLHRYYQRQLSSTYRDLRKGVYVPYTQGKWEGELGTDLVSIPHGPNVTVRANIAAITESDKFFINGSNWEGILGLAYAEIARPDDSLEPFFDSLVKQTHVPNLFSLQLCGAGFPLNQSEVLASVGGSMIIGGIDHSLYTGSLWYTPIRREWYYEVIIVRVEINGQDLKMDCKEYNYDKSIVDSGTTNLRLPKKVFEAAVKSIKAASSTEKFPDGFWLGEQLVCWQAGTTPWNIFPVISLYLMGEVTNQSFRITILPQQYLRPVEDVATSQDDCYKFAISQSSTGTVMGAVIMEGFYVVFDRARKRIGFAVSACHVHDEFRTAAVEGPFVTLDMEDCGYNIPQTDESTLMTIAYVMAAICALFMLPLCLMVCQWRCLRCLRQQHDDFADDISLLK

Sequence of Cholinesterase (P06276 whole entry): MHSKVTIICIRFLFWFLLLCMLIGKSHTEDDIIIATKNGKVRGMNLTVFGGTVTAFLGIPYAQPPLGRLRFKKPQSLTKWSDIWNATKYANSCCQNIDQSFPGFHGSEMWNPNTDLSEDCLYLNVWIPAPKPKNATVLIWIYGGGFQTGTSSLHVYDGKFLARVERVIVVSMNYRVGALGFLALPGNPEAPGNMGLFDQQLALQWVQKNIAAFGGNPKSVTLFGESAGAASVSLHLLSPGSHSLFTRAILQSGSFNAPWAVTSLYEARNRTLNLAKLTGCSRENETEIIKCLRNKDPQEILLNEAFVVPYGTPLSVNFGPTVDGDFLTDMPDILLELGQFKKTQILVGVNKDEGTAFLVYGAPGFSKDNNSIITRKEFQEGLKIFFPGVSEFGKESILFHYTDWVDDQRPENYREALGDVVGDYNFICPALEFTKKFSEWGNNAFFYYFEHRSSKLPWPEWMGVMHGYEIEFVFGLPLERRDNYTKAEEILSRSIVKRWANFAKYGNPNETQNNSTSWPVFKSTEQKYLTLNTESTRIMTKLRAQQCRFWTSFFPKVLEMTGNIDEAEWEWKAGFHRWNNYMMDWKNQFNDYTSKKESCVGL

SMILES: CC(C)=CCC/C(C)=C/Cc1cc(-c2cc(=O)c3c(O)cc(O)cc3o2)c(O)cc1O
pIC50 (Cholinesterase): 4.79
pIC50 (Acetylcholinesterase): 4.79
pKi (Acetylcholinesterase): 5.51

SMILES: COc1cc(O)c(-c2cc(=O)c3c(O)cc(O)cc3o2)cc1C/C=C(\C)CCC=C(C)C
pIC50 (Cholinesterase): 4.96
pKi (Cholinesterase): 5.76
pIC50 (Acetylcholinesterase): 4.96
pKi (Acetylcholinesterase): 5.51

SMILES: COc1cc2occ(-c3ccc(OC4CCN(Cc5ccccc5)CC4)cc3)c(=O)c2cc1OC
pIC50 (Acetylcholinesterase): 7.03

SMILES: COc1cc2occ(-c3ccc(N4CCCC4)cc3)c(=O)c2cc1OC
pIC50 (Acetylcholinesterase): 5.79

pIC50 [1]: 5.10
SMILES: COc1cc([C@H]2Oc3cc(O)cc(O)c3C[C@H]2O)ccc1O [3'-O-METHYL EPICATECHIN]

pIC50 [1]: 4.92
SMILES: O=C1c2c(O)cc(O)cc2O[C@H](c2ccc(O)c(O)c2)[C@H]1O [(+)-TAXIFOLIN]

pIC50 [1]: < 4.00
SMILES: Oc1cc(O)c2c(c1)O[C@H](c1ccc(O)c(O)c1)[C@H](O)C2 [(-)-EPICATECHIN]

SMILES: O=c1cc(-c2ccc(O)cc2)oc2cc(O)cc(O)c12 [APIGENIN]
pIC50 [2]: 5.72
pIC50 (Acetylcholinesterase): 7.92

SMILES: CC(C)=CC1Oc2cc(O)ccc2-c2oc3c4c(cc(O)c3c(=O)c21)OC(C)(C)C=C4 (configuration not stated) [CYCLOMORUSIN]
pIC50 (Cholinesterase): 5.77
pKi (Acetylcholinesterase): 5.51

pIC50 [1]: 5.12
SMILES: COc1ccc(-c2cc(=O)c3c(O)cc(O)cc3o2)cc1O [DIOSMETIN]

SMILES: Oc1cc(O)c2c(c1)O[C@H](c1cc(O)c(O)c(O)c1)[C@H](O)C2 [EPIGALLOCATECHIN]
pIC50 [1]: 5.10

SMILES: O=c1c(O)c(-c2ccc(O)c(O)c2)oc2cc(O)ccc12 [FISETIN]
pIC50 (Acetylcholinesterase): 7.92

SMILES: O=c1c(O)c(-c2ccccc2)oc2cc(O)cc(O)c12 [GALANGIN]
pIC50 (Acetylcholinesterase): 7.92

pIC50 [2]: 4.57
SMILES: COc1ccc([C@@H]2CC(=O)c3c(O)cc(O)cc3O2)cc1O [HESPERETIN]

pIC50 [2]: 4.00
SMILES: COc1ccc([C@@H]2CC(=O)c3c(O)cc(O[C@@H]4O[C@H](CO[C@@H]5O[C@@H](C)[C@H](O)[C@@H](O)[C@H]5O)[C@@H](O)[C@H](O)[C@H]4O)cc3O2)cc1O [HESPERIDIN]

SMILES: OCCc1ccc(O)c(O)c1 [HYDROXYTYROSOL]
pIC50 [1]: 5.12

SMILES: COc1cc(-c2oc3cc(O)cc(O)c3c(=O)c2O)ccc1O [ISORHAMNETIN]
pIC50 [1]: 5.55

SMILES: O=c1c(OC2O[C@H](CO)[C@H](O)[C@H](O)[C@H]2O)c(-c2ccc(O)cc2)oc2cc(O)cc(O)c12 (stereo partly drawn) [KAEMPFEROL 3-O-D-GALACTOSIDE]
pIC50 (Acetylcholinesterase): 7.92

pIC50 [1]: 5.00
pIC50 (Beta-secretase 1): 4.83
SMILES: O=c1c(O)c(-c2ccc(O)cc2)oc2cc(O)cc(O)c12 [KAEMPFEROL]

SMILES: CC(C)=CCc1c(-c2ccc(O)cc2O)oc2c(CC=C(C)C)c(O)cc(O)c2c1=O [KUWANON C]
pIC50 (Cholinesterase): 5.77
pKi (Acetylcholinesterase): 5.51

SMILES: CC(C)=CCC/C(C)=C/Cc1cc(C2CC(=O)c3c(O)cc(O)cc3O2)c(O)cc1O (configuration not stated) [KUWANON E]
pIC50 (Cholinesterase): 5.77
pKi (Acetylcholinesterase): 5.51

SMILES: COc1cc(O)c(C2CC(=O)c3c(O)cc(O)cc3O2)cc1C/C=C(\C)CCC=C(C)C (configuration not stated) [KUWANONU]
pIC50 (Cholinesterase): 5.77
pKi (Acetylcholinesterase): 5.51

SMILES: O=c1cc(-c2ccc(O)c(O)c2)oc2cc(O)cc(O)c12 [LUTEOLIN]
pIC50 [2]: 5.82

pIC50 (Beta-secretase 1): 4.66
SMILES: O=c1c(O)c(-c2ccc(O)cc2O)oc2cc(O)cc(O)c12 [MORIN]

SMILES: CC(C)(O)CCc1c(-c2ccc(O)cc2O)oc2c3c(cc(O)c2c1=O)OC(C)(C)C=C3 [MORUSINOL]
pIC50 (Cholinesterase): 5.77
pKi (Acetylcholinesterase): 5.51

SMILES: CC(C)=CCc1c(-c2ccc(O)cc2O)oc2c3c(cc(O)c2c1=O)OC(C)(C)C=C3 [MORUSIN]
pIC50 (Cholinesterase): 5.77
pKi (Acetylcholinesterase): 5.51

SMILES: O=c1c(O)c(-c2cc(O)c(O)c(O)c2)oc2cc(O)cc(O)c12 [MYRICETIN]
pIC50 (Beta-secretase 1): 5.55
pIC50 (Acetylcholinesterase): 7.92

SMILES: O=C1C[C@@H](c2ccc(O)cc2)Oc2cc(O)cc(O)c21 [NARINGENIN]
pIC50 [2]: 4.34

pIC50 [2]: 4.00
SMILES: C[C@@H]1O[C@@H](O[C@H]2[C@H](Oc3cc(O)c4c(c3)O[C@H](c3ccc(O)cc3)CC4=O)O[C@H](CO)[C@@H](O)[C@@H]2O)[C@H](O)[C@H](O)[C@H]1O [NARINGIN]

SMILES: CC1(C)C=Cc2c(cc(O)c3c(=O)c4c(oc23)-c2ccc(O)cc2OC(C(C)(C)O)C4)O1 (configuration not stated) [NEOCYCLOMORUSIN]
pIC50 (Cholinesterase): 5.77
pKi (Acetylcholinesterase): 5.51

pIC50 [1]: 5.42
SMILES: Oc1cc(O)c2c(c1)O[C@H](c1ccc(O)c(O)c1)[C@H](O)[C@H]2c1c(O)cc(O)c2c1O[C@H](c1ccc(O)c(O)c1)[C@H](O)C2 [PROCYANIDIN B2]

SMILES: O=c1c(O)c(-c2ccc(O)c(O)c2)oc2cc(O)cc(O)c12 [QUERCETIN]
pIC50 [1]: < 4.00
pIC50 [2]: 5.70
pIC50 (Cholinesterase): 3.38
pIC50 (Acetylcholinesterase): 3.45

SMILES: C[C@@H]1O[C@@H](OC[C@H]2O[C@@H](Oc3c(-c4ccc(O)c(O)c4)oc4cc(O)cc(O)c4c3=O)[C@H](O)[C@@H](O)[C@@H]2O)[C@H](O)[C@H](O)[C@H]1O [RUTIN]
pIC50 (Acetylcholinesterase): 7.92

pIC50 [1]: 5.12
SMILES: OCCc1ccc(O)cc1 [TYROSOL]
